Where a name gives a salt, the structure may show the parent alone. Read-outs that look alike come from different tables or passages of the source. One block for each molecule: values may come before it.
Tests used:
[1] = solution in up to 2% strength, topical ocular, adult volunteers; cited from earlier work
chick model of myopia = conditions: subconjunctival injections; cited from earlier work
[2] = Stability of pirenzepine in solution; assay type: physicochemical; conditions: pH 5
myopia [3] = conditions: tree shrews; cited from earlier work
myopia [4] = conditions: chicks; cited from earlier work
myopia [5] = conditions: cited from earlier work
myopia [6] = conditions: stump-tailed monkeys; cited from earlier work

stability in solution [2]: stable in solution especially at pH 5
SMILES: CN1CCN(CC(=O)N2c3ccccc3C(=O)Nc3cccnc32)CC1 [Pirenzepine, 5,11-dihydro-11-[(4-methyl-1-piperazinyl)acetyl]-6H pyrido [2,3-b][1,4]-benzodiazepin-6-one dihydrochloride monohydrate]
comfort and systemic effects [1]: comfortable and without systemic effects | axial eye growth (chick model of myopia): attenuated axial eye growth

SMILES: CN1[C@@H]2CC[C@H]1C[C@@H](OC(=O)C(CO)c1ccccc1)C2 (stereo partly drawn) [atropine]
development of myopia (myopia [3]): prevents the development of myopia | development of myopia (myopia [4]): prevents the development of myopia | axial eye growth (chick model of myopia): attenuated axial eye growth | development of myopia (myopia [5]; humans): prevents the development of myopia | development of myopia (myopia [6]): prevents the development of myopia

SMILES: CCN(Cc1ccncc1)C(=O)C(CO)c1ccccc1 (stereo not drawn) [tropicamide]
effectiveness as myopia therapy (myopia [5]; mild cycloplegic agent, several studies): effective in a number of studies but failed in other studies

Source: US20060188576A1, “Pirenzepine ophthalmic gel” (priority 2001, published 2006)
